Measurements taken from PMC8292404 (British Journal of Cancer, 2021).
Like-named read-outs stand apart in the source and are kept apart here.

How the values were obtained:
[1] = tested on: sorafenib pretreated advanced hepatocellular carcinoma (aHCC); test: Phase 1b: tumour response and survival (RECIST v1.1, investigator); type: in vivo, human; settings: for Best overall response CR / Best overall response Not evaluable / Best overall response PD / Best overall response PR / Best overall response SD: investigator RECIST v1.1
Excerpt: This was an open-label, multicentre, integrated, Phase 1b/2 trial conducted across Europe and the US in patients with aHCC who had failed sorafenib treatment.
(§1) In both study phases, eligible patients were ≥18 years old with aHCC, Child–Pugh Class A liver function score, Eastern Cooperative Oncology Group performance status 0 or 1, and measurable disease defined by Response Evaluation Criteria In Solid Tumors (RECIST) v1.1. […] Exclusion criteria included any prior systemic anti-cancer treatment for aHCC (besides sorafenib) and presence of symptomatic or untreated brain metastases. Full inclusion and exclusion criteria are shown in Supplementary Table 1.
In Phase 2, patients were required to have MET overexpression, based on assessment of a tumour biopsy sample collected after sorafenib discontinuation and within 28 days before the first day of study treatment. MET overexpression was defined as moderate (2+) or strong (3+) staining for MET in ≥50% of tumour cells by immunohistochemistry (IHC) using the pharmDx anti-total MET (D1C2) rabbit monoclonal antibody (Dako, Agilent Technologies, Inc., Santa Clara, CA) (Supplementary Table 2). MET status was not required for Phase 1b, but was determined retrospectively in a biopsy sample collected within 28 days before the first day of study treatment. MET amplification status was determined for patients in Phase 1b and 2 using formalin-fixed paraffin-embedded tumour material by fluorescent in situ hybridisation. MET amplification was defined as MET:CEP7 ratio ≥2 or mean gene copy number ≥5.
(§2) Additional patients were enrolled at the RP2D.
(§3) The primary endpoint in Phase 1b was incidence of dose-limiting toxicities (DLTs) during Cycle 1. Details of DLTs are defined in Supplementary Table 3. Pharmacokinetics (PK) endpoints, including Cmax, and area under the concentration–time curve over the dosing interval at steady state (AUCτ,ss), were evaluated at Cycle 1, Day 15 as a secondary endpoint in Phase 1b. Selected efficacy measures were evaluated as secondary endpoints in Phase 1b.
In both phases, tumour assessments were performed per RECIST v1.1 and modified RECIST[29] v1.1 on Day 1 of every second cycle from Cycle 3 to 13, and Day 1 of every fourth cycle thereafter. Exploratory endpoints included biomarkers of MET pathway activity (including MET amplification status).
(§4) Continuous variables, including PK data, were summarised using descriptive statistics; qualitative variables were summarised by means of counts and percentages.
Tumour response (best overall response, ORR, DCR) and biological response were summarised, along with corresponding two-sided exact Clopper–Pearson 90% confidence intervals (CIs). Kaplan–Meier estimates of median PFS, TTP, time to symptomatic progression and OS are presented, along with 90% CIs (calculated using the two-sided exact Clopper–Pearson method). All statistical analyses were performed using SAS® Software version 9.4 (Statistical Analysis System, SAS-Institute, Cary, North Carolina, US).

[2] = tested on: patients with sorafenib pretreated advanced hepatocellular carcinoma (aHCC); test: Phase 1b dose escalation ('3 + 3'): DLTs and adverse events; type: in vivo
Excerpt: as §1, §2, §3
In Phase 2, the primary endpoint was progression-free survival (PFS) status after 12 weeks of treatment, as assessed by the investigator per RECIST v1.1. Secondary endpoints included TTP, time to symptomatic progression, objective response rate (ORR), disease control rate (DCR) (all investigator-assessed and per RECIST v1.1), PFS per modified RECIST v1.1 (investigator-assessed), OS and biological response (defined as a decrease in AFP >20%). As sensitivity analyses, PFS and TTP were also evaluated by independent review. Safety was assessed via reporting of adverse events (AEs), graded according to National Cancer Institute Common Terminology and Criteria for Adverse Events v4.0.
as §4
Patients who were replaced during Cycle 1 were excluded from the analysis set.

[3] = moderate (Child–Pugh B) hepatic impairment relative to control patients; cited from earlier work
[4] = Phase 1b: pharmacokinetics at Cycle 1, Day 15; settings: human, in vivo
Experimental: as §2, §3, §4

aHCC with MET alteration = tested on: aHCC with MET alteration; design: method as in PMID 31853265; settings: cited from earlier work
[5] = Phase 1b, 300 mg cohort (n = 4)
[6] = Phase 1b, 500 mg cohort (n = 13)

Compound: CN1CCC(COc2cnc(-c3cccc(Cn4nc(-c5cccc(C#N)c5)ccc4=O)c3)nc2)CC1 [tepotinib]
- disease control [1, 5]: 50%
- objective responses [1, 5]: 50%
- disease control [1, 6]: 30.8%
- objective responses [1, 6]: 0%
- DCR ([1]; Phase 1b, MET IHC 0): 100.0%
- objective responses ([1]; Phase 1b, MET IHC 0 (n = 1)): 0%
- DCR ([1]; Phase 1b, MET IHC 1+): 40.0%
- objective responses ([1]; Phase 1b, MET IHC 1+ (n = 5)): 20%
- DCR ([1]; Phase 1b, MET IHC 2+): 42.9%
- objective responses ([1]; Phase 1b, MET IHC 2+ (n = 7)): 14.3%
- DCR ([1]; Phase 1b, MET IHC 3+): 0%
- objective responses ([1]; Phase 1b, MET IHC 3+ (n = 2)): 0.0%
- Median TTP ([1]; Phase 1b, N = 17): 2.1 months
- median OS ([1]; Phase 1b, N = 17): 7.2 months
- median PFS ([1]; Phase 1b, N = 17): 1.5 months
- patients who had died at the time of the analysis ([1]; Phase 1b, N = 17): 82.4%
- patients with disease progression at the time of the analysis ([1]; Phase 1b, N = 17): 70.6%
- disease control ([1]; Phase 1b, overall (N = 17)): 35.3%
- best overall response partial response (PR) ([1]; Phase 1b, two of 17 patients, both 300 mg): 11.8%
- Best overall response CR ([1]; Phase 1b 300 mg/day (n = 4)): 0 n (%)
- Best overall response Not evaluable ([1]; Phase 1b 300 mg/day (n = 4)): 1 (25.0) n (%)
- Best overall response PD ([1]; Phase 1b 300 mg/day (n = 4)): 1 (25.0) n (%)
- Best overall response PR ([1]; Phase 1b 300 mg/day (n = 4)): 2 (50.0) n (%)
- Best overall response SD ([1]; Phase 1b 300 mg/day (n = 4)): 0 n (%)
- Best overall response CR ([1]; Phase 1b 500 mg/day (n = 13)): 0 n (%)
- Best overall response Not evaluable ([1]; Phase 1b 500 mg/day (n = 13)): 1 (7.7) n (%)
- Best overall response PD ([1]; Phase 1b 500 mg/day (n = 13)): 8 (61.5) n (%)
- Best overall response PR ([1]; Phase 1b 500 mg/day (n = 13)): 0 n (%)
- Best overall response SD ([1]; Phase 1b 500 mg/day (n = 13)): 4 (30.8) n (%)
- Best overall response CR ([1]; Phase 1b Total (N = 17)): 0 n (%)
- Best overall response Not evaluable ([1]; Phase 1b Total (N = 17)): 2 (11.8) n (%)
- Best overall response PD ([1]; Phase 1b Total (N = 17)): 9 (52.9) n (%)
- Best overall response PR ([1]; Phase 1b Total (N = 17)): 2 (11.8) n (%)
- Best overall response SD ([1]; Phase 1b Total (N = 17)): 4 (23.5) n (%)
- patients with at least one Grade ≥3 treatment-related AE [2]: 23.5%
- patients with at least one treatment-related AE [2]: 82.4%
- peripheral oedema, AE of any cause [2]: 76.5%
- dose-limiting toxicities (DLTs) during Cycle 1 ([2]; 300 and 500 mg QD cohorts): no DLTs
- AEs of any cause that led to death ([2]; N = 17): 23.5%
- patients with Grade ≥3 events of any cause ([2]; N = 17): 58.8%
- permanently discontinued treatment due to AEs of any cause ([2]; N = 17): 17.6%
- permanently discontinued treatment due to treatment-related AEs ([2]; N = 17 (peripheral oedema)): 5.9%
- reduction in exposure, AUC from time 0 to infinity [3]: 12%
- reduction in exposure, Cmax [3]: 29%
- AUC ([4]; 300 mg QD, geometric mean (geometric CV 18.2%)): 15200 ng·h/mL
- Cmax ([4]; 300 mg QD, geometric mean (geometric CV 19.6%)): 734 ng/mL
- Cmax ([4]; 500 mg QD, geometric mean (geometric CV 44.6%)): 677 ng/mL
- AUC ([4]; 500 mg QD, geometric mean (geometric CV 50.4%)): 12900 ng·h/mL

Compound: CNC(=O)c1ccc(-c2cnc3ncc(Cc4ccc5ncccc5c4)n3n2)cc1F [capmatinib]
- objective response (aHCC with MET alteration; 3/10 patients, MET IHC 3+, or 2+ with MET gene copy number ≥5): 30%
- objective response (aHCC with MET alteration; 3/30 patients, MET H-score ≥50%, MET:CEP7 ratio ≥2 or MET gene copy number ≥5): 10%
